Experimental data from a flash point compilation (Sun et al. 2020).

Row | Compound | flash point [°C]
1 | C=C(C)C=O [2-methyl-2-propenal] | -15
2 | CCC(=O)C(C)C [2-methyl-3-pentanone] | 16
3 | COc1ccccc1C [2-methylanisole] | 51
4 | CCC(C)C [2-methylbutane] | -51
5 | CC1CCCCC1=O (configuration not stated) [2-methylcyclohexanone] | 46
6 | CC1CCCCCCC1=O (configuration not stated) [2-methylcyclooctanone] | 71
7 | CC1CCCC1=O (configuration not stated) [2-methylcyclopentanone] | 26
8 | Cc1ccco1 [2-methylfuran] | -26
9 | CC(C)C=O [2-methylpropanal] | -19
10 | CC(C)C(=O)O [2-methylpropanoicacid] | 59
11 | CC1CCCO1 (configuration not stated) [2-methyltetrahydrofuran] | -12
12 | Cc1cccs1 [2-methylthiophene] | 8
13 | C1=CC2CCC1C2 [2-norbornene] | -14
14 | CC#CCC [2-pentyne] | -30
15 | OCCc1ccccc1 [2-phenylethanol] | 102
16 | CC(=O)OCCc1ccccc1 [2-phenylethylacetate] | 102
17 | CCC(=O)OCCc1ccccc1 [2-phenylethylpropionate] | 113
18 | Cc1ccccn1 [2-picoline] | 26
19 | CCCc1ccccc1N [2-propylaniline] | 97
20 | CCCc1cccs1 [2-propylthiophene] | 32

Row | Compound | flash point [°C]
21 | C#CCO [2-propyn-1-ol] | 36
22 | CCC(C)c1ccccc1N (configuration not stated) [2-sec-butylaniline] | 102
23 | CC(C)(C)C1CCCCC1=O (configuration not stated) [2-tert-butylcyclohexanone] | 72
24 | CC(C)(C)c1ccco1 [2-tert-butylfuran] | 7
25 | CC(C)(C)c1ccccc1O [2-tert-butylphenol] | 102
26 | CCC(C)C(C)(C)CC (configuration not stated) [3,3,4-trimethylhexane] | 15
27 | CCC(Br)CC [3-bromopentane] | 19
28 | Cc1cccc(Br)c1 [3-bromotoluene] | 75
29 | C=CCCO [3-buten-1-ol] | 32
30 | C=CC(C)O (configuration not stated) [3-buten-2-ol] | 20
31 | OCCCCl [3-chloro-1-propanol] | 73
32 | C=C(C)CCl [3-chloro-2-methyl-1-propene] | -12
33 | C=CCCl [3-chloropropene] | -28
34 | CCC(CC)C(C)(C)C [3-ethyl-2,2-dimethylpentane] | 13
35 | CCC(C(C)C)C(C)C [3-ethyl-2,4-dimethylpentane] | 15
36 | CCC(CC)C(C)C [3-ethyl-2-methylpentane] | 3
37 | CC=C(CC)CC [3-ethyl-2-pentene] | -6
38 | CCc1cccc(O)c1 [3-ethylphenol] | 94
39 | CCc1ccsc1 [3-ethylthiophene] | 23
40 | Cc1cccc(F)c1 [3-fluorotoluene] | 12

Row | Compound | flash point [°C]
41 | CCC#CCC [3-hexyne] | -14
42 | C=CCI [3-iodo-1-propene] | 16
43 | CC(C)c1cccc(O)c1 [3-isopropylphenol] | 104
44 | C=CC(C)CC (configuration not stated) [3-methyl-1-pentene] | -33
45 | CC(C)C(C)S (configuration not stated) [3-methyl-2-butanethiol] | 9
46 | CC(C)C(C)O (configuration not stated) [3-methyl-2-butanol] | 27
47 | Cc1cccc(N)c1 [3-methylaniline] | 86
48 | CC(C)CC(=O)O [3-methylbutanoicacid] | 74
49 | CC(C)CC(=O)OC(=O)CC(C)C [3-methylbutanoicanhydride] | 91
50 | CC1CCCC(=O)C1 (configuration not stated) [3-methylcyclohexanone] | 48
51 | C=Cc1cccc(C)c1 [3-methylstyrene] | 48
52 | Cc1ccsc1 [3-methylthiophene] | 11
53 | CC(=O)OCCCc1ccccc1 [3-phenylpropylacetate] | 113
54 | C=CCCBr [4-bromo-1-butene] | 9
55 | CCc1ccc(N)cc1 [4-ethylaniline] | 97
56 | C=CC=C(C)C [4-methyl-1,3-pentadiene] | -18
57 | C=CCC(C)CC (configuration not stated) [4-methyl-1-hexene] | -15
58 | C#CCC(C)C [4-methyl-1-pentyne] | -24
59 | CC(=O)CC(C)C [4-methyl-2-pentanone] | 14
60 | C=CC1(C)CCC(=O)O1 (configuration not stated) [4-methyl-4-vinylbutyrolactone] | 75

Next, values leading:

Row | flash point [°C] | Compound
61 | 4 | CCCCCC(C)C [2-methylheptane]
62 | 38 | CCCCCCCC(C)C [2-methylnonane]
63 | -32 | CCCC(C)C [2-methylpentane]
64 | 91 | CCCC(C)C(=O)O (configuration not stated) [2-methylpentanoicacid]
65 | 46 | CCCC(C)[N+](=O)[O-] (configuration not stated) [2-nitropentane]
66 | 82 | CCCCCCCC(C)O (configuration not stated) [2-nonanol]
67 | 39 | CC#CCCCCCC [2-nonyne]
68 | 56 | CCCCCCC(C)=O [2-octanone]
69 | 15 | CCCC(C)S (configuration not stated) [2-pentanethiol]
70 | 34 | CCCC(C)O (configuration not stated) [2-pentanol]
71 | 107 | CCCCCCCCCC(C)O (configuration not stated) [2-undecanol]
72 | 15 | CCCC(C)C(C)CC (configuration not stated) [3,4-dimethylheptane]
73 | 78 | CC(C)=CCCC(C)CC=O (configuration not stated) [3,7-dimethyl-6-octenal]
74 | 40 | CCCC(Br)CC (configuration not stated) [3-bromohexane]
75 | 41 | CCCCC(C)(CC)CC [3-ethyl-3-methylheptane]
76 | 31 | CCC(C)CC(CC)CC (configuration not stated) [3-ethyl-5-methylheptane]

Row | flash point [°C] | Compound
77 | 5 | CCCC(CC)CC [3-ethylhexane]
78 | 38 | CCCCC(=O)CC [3-heptanone]
79 | 55 | CCCC(I)CC (configuration not stated) [3-iodohexane]
80 | -18 | C=CC(C)CCC (configuration not stated) [3-methyl-1-hexene]
81 | 6 | CCCCC(C)CC (configuration not stated) [3-methylheptane]
82 | -15 | CCCC(C)CC (configuration not stated) [3-methylhexane]
83 | 103 | CCCC(C)CC(=O)O (configuration not stated) [3-methylhexanoicacid]
84 | 79 | CCCCCCC(O)CC (configuration not stated) [3-nonanol]
85 | 38 | CCC#CCCCCC [3-nonyne]
86 | 68 | CCCCCC(O)CC (configuration not stated) [3-octanol]
87 | 89 | CCCCCCCCC(=O)CC [3-undecanone]
88 | 71 | CCCCCCC(=O)CCC [4-decanone]
89 | 52 | CCCC#CCCCCC [4-decyne]
90 | 15 | CCCC(CC)CCC [4-ethylheptane]
91 | 2 | C=CCC(C)CCC (configuration not stated) [4-methyl-1-heptene]
92 | 51 | CC(C)CCCO [4-methyl-1-pentanol]
